Laboratory results published in patent publication US20140005163A1 (NOVARTIS AG, priority 2010, published 2014).

How the values were obtained:
[1] = tested on: PKB Ser473 phosphorylation in Rat1-myr-HA-p110 beta cells; assay: Reverse protein array assay, PKB Ser473 phosphorylation in Rat1-myr-p110 beta cells; format: cell-based; conditions: 0.5 h, pAkt Ser473, 30 minutes incubation, read-out: p-PKB IC50
Method: (§1) The Rat1-myr-HA-p110 alpha, beta and delta cells were trypsinized and counted with a CASY TT cell counter (Schärfe System GmbH, Reutlingen Germany). […] The plates were incubated at 37° C. and 5% CO2 under humidified condition for at least 20 h. Compound of formula I working solutions were prepared freshly as serial 8 step dilutions (vol/vol) in DMSO on the day of the experiment. […] The final DMSO concentration was kept constant at 0.2%. cell culture medium containing 0.2% DMSO was used as vehicle treatment control. Post incubation, the cells were treated with the serial compound dilution. 50 μl of the compound medium mixture was added to the wells containing cells and 150 μl DMEM medium and incubated for 30 minutes (37° C., 5% CO2). After 30 minutes of incubation, the medium mixture was quickly removed by aspiration. […] 50 μl of the described lysis buffer mix was added to each well, followed by 10 minutes of incubation on ice.
(§2) The samples were spotted onto ZeptoMARKt PWG protein microarray chips (Zeptosens, Witterswil, Switzerland) with the piezoelectric microdispense-based, non-contact Nano-Plotter 2.1 (GeSiM, Grosserkmannsdorf, Germany). Each sample was spotted at 4 different sample concentrations (d1=100%, d2=75%, d3=50%, d4=25%) by diluting the cell lysate with the corresponding volume of lysis buffer mix. After spotting the ZeptoMARK® protein microarrays, the chips are incubated for 1 hour at 37° C. […] After 20 minutes of blocking the chips are extensively rinsed with deionized water (Milli-Q quality, 18MΩ×cm) and dried in a nitrogen air flow.
(§3) After incubation, the arrays were washed twice with 200 μl CAB1 buffer. […] The fluorescence signal was assessed with exposure times of 1, 3, 5 and 10 seconds, depending on the intensity of the signal. The resulting four images taken per array are stored as 16-bit TIF files.
(§4) The fluorescence images for each array were analyzed with the ZeptoVIEW Pro 2.0 software (Zeptosens, Witterswil, Switzerland) and the relative fluorescence intensity for each signal was calculated.

[2] = tested on: PKB Ser473 phosphorylation in Rat1-myr-HA-p110 delta cells; assay: Reverse protein array assay, PKB Ser473 phosphorylation in Rat1-myr-p110 delta cells; format: cell-based; conditions: read-out: p-PKB IC50
Method: as §1, §2, §3, §4

[3] = tested on: PKB Ser473 phosphorylation in Rat1-myr-HA-p110 alpha cells; assay: Reverse protein array assay, PKB Ser473 phosphorylation in Rat1-myr-p110 alpha cells; format: cell-based; conditions: 0.5 h, pAkt Ser473, 30 minutes compound incubation, read-out: p-PKB IC50
Method: as §1, §2, §3, §4

mTOR = target: T1, mTOR (Homo sapiens, UniProt P42345); assay: Biochemical assay for m-TOR by TR-FRET; conditions: 8 μM ATP, 400 nM GFP-4EBP1, 0.5 nM mTOR
T1 construct: purchased Invitrogen Corporation (Carlsbad/CA, USA) PV4753
Method: Biochemical Assay for m-TOR by TR-FRET.
Assay components are purchased from Invitrogen Corporation (Carlsbad/CA, USA): GFP-4EBP1 (Cat. No. PV4759), Tb3+-α-p4EBP1 [pThr46] Antibody (Cat. No. PV4757), proprietary TR-FRET dilution buffer (Cat. No. PV3574), mTOR protein (Cat. No. PV4753).
Then 5 μL of ATP (8 μM final concentration) and GFP-4EBP1 (400 nM final concentration) with 5 μL mTOR proteins (0.5 nM final concentration) are incubated at rt. The standard reaction buffer for the TR-FRET mTOR assay contained 50 mM HEPES pH 7.5, 10 mM MnCl2, 50 mM NaCl, 1 mM EGTA, 1 mM DTT. Reactions were stopped with 10 μL of a mixture of EDTA containing the Tb3+-α-p4EBP1-[pT46] detection Ab (0.5 nM) in TR-FRET dilution buffer (proprietary to IVG). Plates are read 15 mins later in a Synergy2 reader using an integration time of 0.2 seconds and a delay of 0.1 seconds. […] A standard compound is used as a reference compound and included in all assay plates in the form of 16 dilution points in duplicate.

[4] = tested on: S6 Ribosomal Protein phosphorylation Ser235/236 in TSC1 null mouse embryo fibroblast (MEF) cells; assay: Reverse protein array assay, S6 Ribosomal Protein phosphorylation Ser235/236 in TSC1 null MEF cells; format: cell-based; conditions: 1 h, pS6 ribosomal protein Ser235/236, 60 minutes incubation, read-out: p-S6 IC50
Method: as §1, with “TSC1−/−” for “Rat1-myr-HA-p110 alpha, beta and delta”, “(Schirfe” for “(Schärfe”, “Working” for “Compound of formula I working”, “0.02%.” for “0.2%.”, “0.02%” for “0.2%”, “60” for “30”
The spotting of the chips follows the previous described method.

PI3K alpha = target: T2, PI3K alpha (Homo sapiens, UniProt P42336); assay: PI3K alpha kinase assay (Kinase-Glo luminescence); format: biochemical
T2 construct: p85(iSH2) fusion partner (see partner chain) (N); His tag (C); made in house; host or cells: baculovirus; Tn5 (Trichoplusia ni) or TiniPro insect cells
Method: In a more preferred assay, the kinase reaction is performed in a final volume of 10 μL per well of a low volume non binding CORNING, 384 well black plate (Cat. No. #3676). The final concentrations of ATP and phosphatidyl inositol (PI) in the assay are 1 μM and 10 μg/mL respectively. The reaction is started by the addition of ATP.
The components of the assay are added per well as follows:
[…] in 90% DMSO per well, in columns 1-20, 8 concentrations (1/3 and 1/3.33 serial dilution step) in single. • Low control: […] of 90% DMSO in half the wells of columns 23-24 (0.45% in final). • High control: […] of reference compound (e.g. compound of Example 7 in WO 2006/122806) in the other half of columns 23-24 (2.5 μM in final). • Standard: […] of reference compound as just mentioned diluted as the test compounds in columns 21-22 • 20 mL ‘buffer’ are prepared per assay: • 200 μL of 1M TRIS HCl pH7.5 (10 mM in final) • 60 μL of 1M MgCl2 (3 mM in final) • 500 μL of 2M NaCl (50 mM in final) • 100 μL of 10% CHAPS (0.05% in final) • 200 μL of 100 mM DTT (1 mM in final) • 18.94 mL of nanopure water • 10 mL ‘PI’ are prepared per assay: • 200 μL of 1 mg/ml L-alpha-Phosphatidylinositol (Liver Bovine, Avanti Polar Lipids Cat. No. 840042C MW=909.12) prepared in 3% OctylGlucoside (10 μg/ml in final) • 9.8 mL of ‘buffer’ • 10 mL ‘ATP’ are prepared per assay: • 6.7 μL of 3 mM stock of ATP giving a final concentration of 1 μM per well • 10 mL of ‘buffer’ • 2.5 mL of each PI3K construct are prepared per assay in ‘PI’ with the following final concentration: • 10 nM PI3K alfa EMV B1075 • 25 nM beta EMV BV949 • 10 nM delta EMV BV1060 • 150 nM gamma EMV BV950 • 5 μL of ‘PI/PI3K’ are added per well. • 5 μl ‘ATP’ are added per well to start the reaction. • The plates are then incubated at room temperature for 60 minutes (alfa, beta, delta) or 120 minutes (gamma). • The reaction is terminated by the addition of 10 μL Kinase-Glo (Promega Cat. No. #6714). • The assay plates are read after 10 minutes in Synergy 2 reader (BioTek, Vermont USA) with an integration time of 100 milliseconds and sensitivity set to 191. • Output: The High control is around 60'000 counts and the Low control is 30'000 or lower • This luminescence assay gives a useful Z′ ratio between 0.4 and 0.7
Two different constructs, BV 1052 and BV 1075, are used to generate the PI3 Kinase a proteins for compound screening.
IC50 is determined by a four parameter curve fitting routine that comes along with “excel fit”. […] Alternatively, IC50 values are calculated using idbsXLfit model 204, which is a 4 parameter logistic model.

T1 sequence (P42345 1360-2549 limits assumed): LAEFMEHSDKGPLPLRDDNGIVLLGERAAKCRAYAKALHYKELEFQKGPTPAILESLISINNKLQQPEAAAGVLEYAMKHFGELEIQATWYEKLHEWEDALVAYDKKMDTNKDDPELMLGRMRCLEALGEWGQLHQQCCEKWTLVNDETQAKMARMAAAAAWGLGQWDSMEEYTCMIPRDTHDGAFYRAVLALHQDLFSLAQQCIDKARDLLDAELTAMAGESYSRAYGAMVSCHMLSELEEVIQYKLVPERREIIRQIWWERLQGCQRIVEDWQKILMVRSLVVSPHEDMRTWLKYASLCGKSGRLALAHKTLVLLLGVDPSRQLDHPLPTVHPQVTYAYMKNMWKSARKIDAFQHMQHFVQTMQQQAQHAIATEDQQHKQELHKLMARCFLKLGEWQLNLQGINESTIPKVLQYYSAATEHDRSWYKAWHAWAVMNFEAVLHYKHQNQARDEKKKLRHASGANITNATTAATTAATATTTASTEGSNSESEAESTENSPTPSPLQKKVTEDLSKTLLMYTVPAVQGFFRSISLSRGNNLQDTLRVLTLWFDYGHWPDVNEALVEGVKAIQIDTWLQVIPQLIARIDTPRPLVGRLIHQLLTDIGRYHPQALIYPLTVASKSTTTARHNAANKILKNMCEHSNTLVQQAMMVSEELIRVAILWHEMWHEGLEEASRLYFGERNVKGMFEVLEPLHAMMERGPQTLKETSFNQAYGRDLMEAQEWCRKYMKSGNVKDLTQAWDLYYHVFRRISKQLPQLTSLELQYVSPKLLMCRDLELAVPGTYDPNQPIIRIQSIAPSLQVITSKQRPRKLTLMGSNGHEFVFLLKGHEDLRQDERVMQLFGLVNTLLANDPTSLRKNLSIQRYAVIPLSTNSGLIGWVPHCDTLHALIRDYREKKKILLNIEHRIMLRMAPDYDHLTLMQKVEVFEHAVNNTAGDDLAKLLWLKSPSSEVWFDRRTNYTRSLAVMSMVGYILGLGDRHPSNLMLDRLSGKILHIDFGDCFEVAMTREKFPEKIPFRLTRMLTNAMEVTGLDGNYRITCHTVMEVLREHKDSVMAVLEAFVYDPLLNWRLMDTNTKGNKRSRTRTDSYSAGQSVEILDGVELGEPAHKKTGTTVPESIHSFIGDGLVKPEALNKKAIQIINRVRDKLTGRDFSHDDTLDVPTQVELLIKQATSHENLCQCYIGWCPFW
T2 sequence (P42336 with tags, fused parts or gaps limits assumed): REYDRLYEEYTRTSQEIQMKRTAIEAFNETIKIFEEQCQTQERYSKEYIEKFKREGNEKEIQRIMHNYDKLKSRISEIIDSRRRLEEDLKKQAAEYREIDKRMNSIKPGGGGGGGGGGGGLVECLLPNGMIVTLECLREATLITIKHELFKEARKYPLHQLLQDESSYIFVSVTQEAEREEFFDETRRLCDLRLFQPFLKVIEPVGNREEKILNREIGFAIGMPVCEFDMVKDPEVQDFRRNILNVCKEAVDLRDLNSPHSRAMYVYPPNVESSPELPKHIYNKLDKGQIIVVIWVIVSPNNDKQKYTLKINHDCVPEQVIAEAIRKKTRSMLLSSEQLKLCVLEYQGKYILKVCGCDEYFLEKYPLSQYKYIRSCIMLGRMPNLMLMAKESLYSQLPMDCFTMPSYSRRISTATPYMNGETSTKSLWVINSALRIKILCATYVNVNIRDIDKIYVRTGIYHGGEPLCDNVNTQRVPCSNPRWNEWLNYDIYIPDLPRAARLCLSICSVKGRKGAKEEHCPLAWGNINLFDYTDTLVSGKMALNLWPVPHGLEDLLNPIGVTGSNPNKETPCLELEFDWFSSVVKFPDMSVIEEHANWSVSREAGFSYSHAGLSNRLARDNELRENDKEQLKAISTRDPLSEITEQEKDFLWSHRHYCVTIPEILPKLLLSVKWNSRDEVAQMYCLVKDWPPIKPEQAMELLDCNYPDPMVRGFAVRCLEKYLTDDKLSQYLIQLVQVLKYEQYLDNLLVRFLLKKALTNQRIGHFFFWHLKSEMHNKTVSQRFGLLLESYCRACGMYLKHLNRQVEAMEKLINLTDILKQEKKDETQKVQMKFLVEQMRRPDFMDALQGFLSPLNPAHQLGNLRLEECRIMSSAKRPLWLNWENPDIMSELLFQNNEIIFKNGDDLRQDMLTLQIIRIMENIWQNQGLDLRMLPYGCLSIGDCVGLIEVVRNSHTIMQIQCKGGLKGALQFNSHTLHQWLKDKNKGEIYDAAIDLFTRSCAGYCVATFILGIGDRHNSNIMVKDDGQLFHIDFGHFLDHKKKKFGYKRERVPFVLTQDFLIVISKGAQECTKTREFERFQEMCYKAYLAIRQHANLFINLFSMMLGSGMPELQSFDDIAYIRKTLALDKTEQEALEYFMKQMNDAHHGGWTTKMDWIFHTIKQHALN

| IC50 [1] [nM] | IC50 [2] [nM] | IC50 [3] [nM] | IC50 (mTOR) [nM] | IC50 (PI3K alpha) [nM] | SMILES | IC50 [4] [nM] |
| --- | --- | --- | --- | --- | --- | --- |
| 9 | 15 | 8 | 6 | – | CCn1cc(-n2c(=O)n(C)c3cnc4ccc(-c5ccc(-n6cccn6)cc5)cc4c32)c(C)n1 [Example 51.3, 1-(1-Ethyl-3-methyl-1H-pyrazol-4-yl)-3-methyl-8-(4-pyrazol-1-yl-phenyl)-1,3-dihydro-imidazo[4,5-c]quinolin-2-one] | 2 |
| 23 | 21 | 20 | 8 | – | COCc1ncc(-c2ccc3ncc4c(c3c2)n(-c2cn(C)nc2Cl)c(=O)n4C)cc1OC [Example 195.4, 1-(3-Chloro-1-methyl-1H-pyrazol-4-yl)-8-(5-methoxy-6-methoxymethyl-pyridin-3-yl)-3-methyl-1,3-dihydro-imidazo[4,5-c]quinolin-2-one] | 2 |
| 240 | 636 | 175 | 28 | 163 | Cc1nn(CC(=O)N2CCOCC2)cc1-n1c(=O)n(C)c2cnc3ccc(-c4cnc(N5CCCC5)nc4)cc3c21 [Example 247.3, 3-Methyl-1-[3-methyl-1-(2-morpholin-4-yl-2-oxo-ethyl)-1H-pyrazol-4-yl]-8-(2-pyrrolidin-1-yl-pyrimidin-5-yl)-1,3-dihydro-imidazo[4,5-c]quinolin-2-one] | 35 |
| 57 | 56 | 10 | 4 | – | CCC(O)(CC)c1cncc(-c2ccc3ncc4c(c3c2)n(-c2cn(C)nc2C)c(=O)n4C)c1 [Example 216, 1-(1,3-Dimethyl-1H-pyrazol-4-yl)-8-[5-(1-ethyl-1-hydroxy-propyl)-pyridin-3-yl]-3-methyl-1,3-dihydro-imidazo[4,5-c]quinolin-2-one] | < 0.5 |
| 41 | 106 | 44 | 34 | – | Cc1nn(CC(=O)N2CCCC2)cc1-n1c(=O)n(C)c2cnc3ccc(-c4cnc(N5CCCC5)nc4)cc3c21 [Example 247.4, 3-Methyl-1-[3-methyl-1-(2-oxo-2-pyrrolidin-1-yl-ethyl)-1H-pyrazol-4-yl)-8-(2-pyrrolidin-1-yl-pyrimidin-5-yl)-1,3-dihydro-imidazo[4,5-c]quinolin-2-one] | 4 |
| 13 | 5 | 13 | 13 | – | CNc1ncc(-c2ccc3ncc4c(c3c2)n(-c2cn(C)nc2C)c(=O)n4C)cn1 [Example 80.1, 1-(1,3-Dimethyl-1H-pyrazol-4-yl)-3-methyl-8-(2-methylamino-pyrimidin-5-yl)-1,3-dihydro-imidazo[4,5-c]quinolin-2-one] | 3 |
| 12 | 15 | 12 | 27 | 61 | CCN(C)C(=O)Cn1cc(-n2c(=O)n(C)c3cnc4ccc(-c5ccc(-n6cccn6)cc5)cc4c32)c(C)n1 [Example 51.6, N-Ethyl-N-methyl-2-{3-methyl-4-[3-methyl-2-oxo-8-(4-pyrazol-1-yl-phenyl)-2,3-dihydro-imidazo[4,5-c]quinolin-1-yl]pyrazol-1-yl}-acetamide] | < 0.5 |
| 55 | 112 | 34 | 665 | – | CCNc1cc(-c2ccc3ncc4c(c3c2)n(-c2c(C)noc2C)c(=O)n4C)cnc1Cl [Example 153.3, 8-(6-Chloro-5-ethylamino-pyridin-3-yl)-1-(3,5-dimethyl-isoxazol-4-yl)-3-methyl-1,3-dihydro-imidazo[4,5-c]quinolin-2-one] | 36 |
